Laboratory results published in US20250092065A1, “2-(INDAZOL-5-YL)-6-(PIPERIDIN-4-YL)-1,7-NAPHTHYRIDINE DERIVATIVES AND RELATED COMPOUNDS AS MODULATORS FOR SPLICING NUCLEIC ACIDS AND FOR THE TREATMENT OF PROLIFERATIVE DISEASES” (REMIX THERAPEUTICS INC., priority 2022, published 2025).
Where a name gives a salt, the structure may show the parent alone.

Assays:
[1] = system: SMN2 mRNA; test: RT-qPCR splicing assay, SMN2 mRNA; assay type: cell-based, human; settings: Homo sapiens, canonical junction qPCR panel, Table 4; read-out: SMN2 IC50 (decrease in CJ mRNA levels)
Summary of the method: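 Splice switching quantified in compound-treated A673/K562 cells after 24 h exposure (top dose 10 uM, 3-fold steps, ≤0.25% DMSO), using CJ and AJ qPCR assays run at least in duplicate. RQ derived by 2^(−ΔΔCt), then percentage response.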

[2] = system: Target C; test: RT-qPCR canonical junction panel assay, Target C mRNA; assay type: cell-based; settings: Table 4, read-out: Target C IC50 (decrease in CJ mRNA levels)
Summary of the method: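 A673 or K562 cells treated with compound; CJ mRNA quantified by junction-spanning RT-qPCR probe after cDNA synthesis, normalised to GAPDH, GUSB or PPIA and DMSO (2^−ΔΔCt), scaled to set ΔCt assay window; IC50 from 4-parameter fit of CJ decrease.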

Row | Structure (SMILES) | IC50 [1] | IC50 [2]
1 | CNC(=O)c1nc(-c2cc3cn(C)nc3c(C)c2O)nc2ccc(N3CC[C@H](NC)C3)cc12 [Compound 537, 2-(6-hydroxy-2,7-dimethylindazol-5-yl)-N-methyl-6-[(3S)-3-(methylamino)pyrrolidin-1-yl]quinazoline-4-carboxamide] | < 100 nM | 100 to 1000 nM
2 | Cc1c(O)c(-c2nc(-c3c[nH]nn3)c3cc(N4CCNCC4)ccc3n2)cc2cn(C)nc12 [Compound 538, 2,7-dimethyl-5-[6-(piperazin-1-yl)-4-(1H-1,2,3-triazol-4-yl)quinazolin-2-yl]indazol-6-ol hydrochloride] | 100 to 1000 nM | 1000 to 10000 nM
3 | Cc1c(O)c(-c2nc(C(=O)NC(C)C)c3cc(N4C[C@@H](C)N[C@@H](C)C4)ccc3n2)cc2cn(C)nc12 [Compound 539, 6-[(3R,5S)-3,5-dimethylpiperazin-1-yl]-2-(6-hydroxy-2,7-dimethylindazol-5-yl)-N-isopropylquinazoline-4-carboxamide] | < 100 nM | 100 to 1000 nM
4 | Cc1c(O)c(-c2nc(C(=O)NC3CCC3)c3cc(N4C[C@@H](C)N[C@@H](C)C4)ccc3n2)cc2cn(C)nc12 [Compound 540] | < 100 nM | > 10000 nM
5 | Cc1c(O)c(-c2nc(-c3nn[nH]n3)c3cc(N4CCNCC4)ccc3n2)cc2cn(C)nc12 [Compound 541, 2,7-dimethyl-5-[6-(piperazin-1-yl)-4-(2H-1,2,3,4-tetrazol-5-yl)quinazolin-2-yl]indazol-6-ol] | 1000 to 10000 nM | 1000 to 10000 nM
6 | C[C@@H]1CN(c2ccc3nc(-c4cc5cn(C)nc5c(F)c4O)nc(C4CC4)c3c2)C[C@H](C)N1 [Compound 542, 5-{4-cyclopropyl-6-[(3R,5S)-3,5-dimethylpiperazin-1-yl]quinazolin-2-yl}-7-fluoro-2-methylindazol-6-ol] | < 100 nM | > 10000 nM
7 | CN[C@@H]1CCN(c2ccc3nc(-c4cc5cn(C)nc5c(F)c4O)nc(C4CC4)c3c2)C1 [Compound 543, 5-{4-cyclopropyl-6-[(3R)-3-(methylamino)pyrrolidin-1-yl]quinazolin-2-yl}-7-fluoro-2-methylindazol-6-ol] | < 100 nM | 100 to 1000 nM
8 | Cc1cn2cc(-c3ccc4cc(N5C[C@@H](C)N[C@@H](C)C5)cc(F)c4n3)cc(F)c2n1 [Compound 544, 6-[(3R,5S)-3,5-dimethylpiperazin-1-yl]-8-fluoro-2-{8-fluoro-2-methylimidazo[1,2-a]pyridin-6-yl}quinoline] | < 100 nM | 1000 to 10000 nM
9 | CNC(=O)c1nc(-c2cc3cn(C)nc3c(C)c2O)nc2ccc(N3C[C@H](C)N[C@@H](C)C3)cc12 [Compound 652, 6-[(3S,5S)-3,5-dimethylpiperazin-1-yl]-2-(6-hydroxy-2,7-dimethylindazol-5-yl)-N-methylquinazoline-4-carboxamide] | < 100 nM | > 10000 nM
10 | Cc1c(O)c(-c2ncc3cc(N4C[C@H](C)N[C@@H](C)C4)ccc3n2)cc2cn(C)nc12 [Compound 660, 5-{6-[(3S,5S)-3,5-dimethylpiperazin-1-yl]quinazolin-2-yl}-2,7-dimethylindazol-6-ol] | < 100 nM | 1000 to 10000 nM
11 | CNC(=O)c1nc(-c2cc3cn(C)nc3c(C)c2O)nc2ccc(N3CCC(N4CCC4)CC3)cc12 [Compound 706] | < 100 nM | > 10000 nM
12 | C[C@@H]1CN(c2ccc3nc(-c4cc5cn(C)nc5c(F)c4O)nc(C#N)c3c2)C[C@H](C)N1 [Compound 707, 6-[(3R,5S)-3,5-dimethylpiperazin-1-yl]-2-(7-fluoro-6-hydroxy-2-methylindazol-5-yl) quinazoline-4-carbonitrile] | < 100 nM | 100 to 1000 nM
13 | C[C@@H]1CN(c2ccc3nc(-c4cc5cn(C)nc5c(F)c4O)nc(C(N)=O)c3c2)C[C@H](C)N1 [Compound 712, 6-[(3R,5S)-3,5-dimethylpiperazin-1-yl]-2-(7-fluoro-6-hydroxy-2-methylindazol-5-yl) quinazoline-4-carboxamide] | < 100 nM | > 10000 nM
14 | CC(=O)c1nc(-c2cc3cn(C)nc3c(F)c2O)nc2ccc(N3C[C@@H](C)N[C@@H](C)C3)cc12 [Compound 717, 1-{6-[(3R,5S)-3,5-dimethylpiperazin-1-yl]-2-(7-fluoro-6-hydroxy-2-methylindazol-5-yl)quinazolin-4-yl}ethanone] | < 100 nM | 100 to 1000 nM
15 | CNC(=O)c1nc(-c2cc3cn(C)nc3c(F)c2O)nc2ccc(N3CCC(N4CCC4)CC3)cc12 [Compound 722, 6-[4-(azetidin-1-yl)piperidin-1-yl]-2-(7-fluoro-6-hydroxy-2-methylindazol-5-yl)-N-methylquinazoline-4-carboxamide] | < 100 nM | 100 to 1000 nM
16 | Cc1cc(N2C[C@@H](C)N[C@@H](C)C2)cc2c(Cl)cc(-c3cc4cn(C)nc4c(F)c3O)nc12 [Compound 723, 5-{4-chloro-6-[(3R,5S)-3,5-dimethylpiperazin-1-yl]-8-methylquinolin-2-yl}-7-fluoro-2-methylindazol-6-ol] | < 100 nM | 100 to 1000 nM
17 | CNC(=O)c1nc(-c2cc3cn(C)nc3c(F)c2O)nc2ccc(N3CCNC4(CC4)C3)cc12 [Compound 728, 6-{4,7-diazaspiro[2.5]octan-7-yl}-2-(7-fluoro-6-hydroxy-2-methylindazol-5-yl)-N-methylquinazoline-4-carboxamide] | < 100 nM | 1000 to 10000 nM
18 | CNC(=O)c1nc(-c2cc3cn(C)nc3c(F)c2O)nc2ccc(N3CC[C@@H](NC)C3)cc12 [Compound 729, 2-(7-fluoro-6-hydroxy-2-methylindazol-5-yl)-N-methyl-6-[(3R)-3-(methylamino)pyrrolidin-1-yl]quinazoline-4-carboxamide] | < 100 nM | < 100 nM
19 | C[C@@H]1CN(c2ccc3nc(-c4cc5cn(C)nc5c(F)c4O)nc(-c4nccs4)c3c2)C[C@H](C)N1 [Compound 732, 5-{6-[(3R,5S)-3,5-dimethylpiperazin-1-yl]-4-(1,3-thiazol-2-yl)quinazolin-2-yl}-7-fluoro-2-methylindazol-6-ol] | 100 to 1000 nM | > 10000 nM

The next lines start with the values.

Row | IC50 [1] | IC50 [2] | Structure (SMILES)
20 | < 100 nM | 1000 to 10000 nM | Cc1c(O)c(-c2ncc3nc(N4C[C@@H](C)N[C@@H](C)C4)ccc3n2)cc2cn(C)nc12 [Compound 526, 5-{6-[(3R,5S)-3,5-dimethylpiperazin-1-yl]pyrido[3,2-d]pyrimidin-2-yl}-2,7-dimethylindazol-6-ol]
21 | < 100 nM | 100 to 1000 nM | CNC(=O)c1nc(-c2cc3cn(C)nc3c(F)c2O)nc2ccc(N3C[C@@H](C)N[C@@H](C)C3)cc12 [Compound 527, 6-[(3R,5S)-3,5-dimethylpiperazin-1-yl]-2-(7-fluoro-6-hydroxy-2-methylindazol-5-yl)-N-methylquinazoline-4-carboxamide]
22 | < 100 nM | 1000 to 10000 nM | CNC(=O)c1nc(-c2cc3cn(C)nc3c(F)c2O)nc2ccc(N3CCC(N(C)C)CC3)cc12 [Compound 528, 6-[4-(dimethylamino)piperidin-1-yl]-2-(7-fluoro-6-hydroxy-2-methylindazol-5-yl)-N-methylquinazoline-4-carboxamide]
23 | < 100 nM | 1000 to 10000 nM | CNC(=O)c1nc(-c2cc3cn(C)nc3c(F)c2O)nc2ccc(N3CCN[C@@H](C)C3)cc12 [Compound 529, 2-(7-fluoro-6-hydroxy-2-methylindazol-5-yl)-N-methyl-6-[(3S)-3-methylpiperazin-1-yl]quinazoline-4-carboxamide]
24 | < 100 nM | > 10000 nM | CNC(=O)c1nc(-c2cc3cn(C)nc3cc2O)nc2ccc(N3CCN[C@@H](C)C3)cc12 [Compound 530, 2-(6-hydroxy-2-methylindazol-5-yl)-N-methyl-6-[(3S)-3-methylpiperazin-1-yl]quinazoline-4-carboxamide]
25 | < 100 nM | > 10000 nM | CNC(=O)c1nc(-c2cc3cn(C)nc3cc2O)nc2ccc(N3C[C@@H](C)N[C@@H](C)C3)cc12 [Compound 531, 6-[(3R,5S)-3,5-dimethylpiperazin-1-yl]-2-(6-hydroxy-2-methylindazol-5-yl)-N-methylquinazoline-4-carboxamide]
26 | < 100 nM | > 10000 nM | CNC(=O)c1nc(-c2cc3cn(C)nc3c(C)c2O)nc2ccc(N3CCNC4(CC4)C3)cc12 [Compound 532, 6-{4,7-diazaspiro[2.5]octan-7-yl}-2-(6-hydroxy-2,7-dimethylindazol-5-yl)-N-methylquinazoline-4-carboxamide]
27 | < 100 nM | > 10000 nM | CNC(=O)c1nc(-c2cc3cn(C)nc3c(C)c2O)nc2ccc(N3CCNCC3)nc12 [Compound 533, 2-(6-hydroxy-2,7-dimethylindazol-5-yl)-N-methyl-6-(piperazin-1-yl)pyrido[3,2-d]pyrimidine-4-carboxamide]
28 | < 100 nM | > 10000 nM | CNC(=O)c1nc(-c2cc3cn(C)nc3c(C)c2O)nc2ccc(N3C[C@@H](C)N[C@@H](C)C3)nc12 [Compound 534, 6-[(3R,5S)-3,5-dimethylpiperazin-1-yl]-2-(6-hydroxy-2,7-dimethylindazol-5-yl)-N-methylpyrido[3,2-d]pyrimidine-4-carboxamide]
29 | < 100 nM | 1000 to 10000 nM | CCNC(=O)c1nc(-c2cc3cn(C)nc3c(C)c2O)nc2ccc(N3C[C@@H](C)N[C@@H](C)C3)cc12 [Compound 535, 6-[(3R,5S)-3,5-dimethylpiperazin-1-yl]-N-ethyl-2-(6-hydroxy-2,7-dimethylindazol-5-yl)quinazoline-4-carboxamide]
30 | < 100 nM | < 100 nM | CNC(=O)c1nc(-c2cc3cn(C)nc3c(C)c2O)nc2ccc(N3CC[C@@H](NC)C3)cc12 [Compound 536, 2-(6-hydroxy-2,7-dimethylindazol-5-yl)-N-methyl-6-[(3R)-3-(methylamino)pyrrolidin-1-yl]quinazoline-4-carboxamide]
